Test results from patent US20050182040A1, “Benzamide derivatives” (priority 2002, published 2005).
pIC50: −log10 of the molar value.

Target: T1, Rho kinase (Bos taurus, UniProt Q28021)
T1 construct: Rho kinase was selectively immobilized from the bovine brain extract fraction; from tissue; host or cells: bovine brain gray matter extract, captured on an anti-ROKII peptide antibody plate
Experiment: Assay of the inhibition of phosphorylation by Rho kinase
Format: biochemical
Details: Rho kinase immobilized from bovine brain extract fraction on anti-Rho kinase antibody plate; 0.1 μM ATP ([γ-32P]ATP), histone (HF2A) substrate; room temperature, 4 hours
Procedure: Assay of the inhibition of phosphorylation by Rho kinase
A bovine brain extract fraction was prepared as follows. That is, a piece of gray matter was minced from bovine brain and suspended in a buffer solution for immunoprecipitation (10 mM tris(hydroxymethyl)aminomethane (Tris) (pH 7.5), 1% Triton X-100, 0.5% NP-40, 150 mM NaCl, 20 mM sodium fluoride, 1 mM ethylenediaminetetraacetic acid (EDTA), 1 mM ethylene glycol bis(β-aminoethyl ether)-N,N,N′,N′-tetraacetic acid (EGTA) and 0.2 mM phenylmethylsulfonyl fluoride (PMSF)) in two volumes of the gray matter. The tissue was homogenized by the use of a Potter type homogenizer made of polytetrafluoroethylene. After the homogenate was centrifuged at 20,000 g for 15 minutes, the supernatant was collected and then subjected to ultracentrifugation at 100,000 g for 60 minutes. The resulting supernatant was used as a bovine brain extract fraction.
An anti-Rho kinase antibody immobilized plate was prepared as follows. That is, a secondary antibody (anti-goat IgG (Fc) antibody) was diluted 300-fold with phosphate-buffered saline (PBS) (1 μl antibody/300 μl PBS), and 100 μl of the resulting dilution was added to each well of a 96-well ELISA plate. After coating at room temperature for 2 hours, the supernatant was removed. Thereafter, 100 μl of PBS was added and then the supernatant was removed (this washing operation was carried out twice). After the washing, 100 μl of a blocking buffer solution (0.05% Tween 20 and 0.25% bovine serum albumin (fatty acid free)/PBS) was added, followed by blocking at room temperature for 1 hour. After the blocking, each well was washed twice with 100 μl of the blocking buffer solution, and 100 μl of a primary antibody (anti-ROKII (Rho kinase) peptide antibody) diluted 200-fold (0.5 μl (0.1 μg)/100 μl) with PBS was added, followed by coating at room temperature for 2 hours. After the coating, each well was washed once with 100 μl of the blocking buffer solution. In addition, 100 μl of the blocking buffer solution was added to obtain an anti-Rho kinase antibody immobilized plate.
Using the aforesaid plate, Rho kinase was selectively immobilized from the bovine brain extract fraction, and phosphorylation by Rho kinase was assayed. To each well of the antibody-immobilized plate was added 100 μl of a bovine brain extract solution prepared so as to have a concentration of 1.5 mg/ml, and the reactions were incubated at 4° C. for 1 hour to immobilize Rho kinase on the plate. After completion of the reaction, the supernatant was removed and each well was washed three times with 100 μl of the buffer solution for immunoprecipitation. In addition, each well was washed three times with 100 μl of buffer solution A (50 mM Tris (pH 7.5), 10 mM MgCl2 and 150 mM NaCl). To each well of the plate freed from the supernatant was added 40 μl of the aforesaid buffer solution for reaction (50 mM Tris-HCl (pH 7.5), 2 mM EDTA and 10 mM MgCl2). Further, adenosine 5′-triphosphate (ATP) buffer (0.1 μM ATP (containing 6 nM [v-^32P]ATP) and 10 μg histone (HF2A)) containing each compound was prepared, and 10 μl of this solution was added to each well of the plate to initiate the reaction. The reactions were carried out at room temperature for 4 hours. The reaction was terminated by the addition of a phosphoric acid solution of a final concentration of 75 mM and 50 μM ATP. After completion of the reaction, 50 μl of the reaction solutions were spotted onto a phosphocellulose filter for Beta Plate 1205 (Wallac) only. After completion of the spot, the filter was washed with 150 ml of a 75 mM phosphoric acid solution for 10 minutes. This washing operation was repeated three times. After completion of the washing, the filter was dried and then wrapped in a cellophane bag, and 10 ml of a liquid scintillation cocktail was added. The amount of energy (β-ray radioactivity count) trapped in the filter was measured with Beta Plate 1205. […]

T1 sequence (Q28021 whole entry): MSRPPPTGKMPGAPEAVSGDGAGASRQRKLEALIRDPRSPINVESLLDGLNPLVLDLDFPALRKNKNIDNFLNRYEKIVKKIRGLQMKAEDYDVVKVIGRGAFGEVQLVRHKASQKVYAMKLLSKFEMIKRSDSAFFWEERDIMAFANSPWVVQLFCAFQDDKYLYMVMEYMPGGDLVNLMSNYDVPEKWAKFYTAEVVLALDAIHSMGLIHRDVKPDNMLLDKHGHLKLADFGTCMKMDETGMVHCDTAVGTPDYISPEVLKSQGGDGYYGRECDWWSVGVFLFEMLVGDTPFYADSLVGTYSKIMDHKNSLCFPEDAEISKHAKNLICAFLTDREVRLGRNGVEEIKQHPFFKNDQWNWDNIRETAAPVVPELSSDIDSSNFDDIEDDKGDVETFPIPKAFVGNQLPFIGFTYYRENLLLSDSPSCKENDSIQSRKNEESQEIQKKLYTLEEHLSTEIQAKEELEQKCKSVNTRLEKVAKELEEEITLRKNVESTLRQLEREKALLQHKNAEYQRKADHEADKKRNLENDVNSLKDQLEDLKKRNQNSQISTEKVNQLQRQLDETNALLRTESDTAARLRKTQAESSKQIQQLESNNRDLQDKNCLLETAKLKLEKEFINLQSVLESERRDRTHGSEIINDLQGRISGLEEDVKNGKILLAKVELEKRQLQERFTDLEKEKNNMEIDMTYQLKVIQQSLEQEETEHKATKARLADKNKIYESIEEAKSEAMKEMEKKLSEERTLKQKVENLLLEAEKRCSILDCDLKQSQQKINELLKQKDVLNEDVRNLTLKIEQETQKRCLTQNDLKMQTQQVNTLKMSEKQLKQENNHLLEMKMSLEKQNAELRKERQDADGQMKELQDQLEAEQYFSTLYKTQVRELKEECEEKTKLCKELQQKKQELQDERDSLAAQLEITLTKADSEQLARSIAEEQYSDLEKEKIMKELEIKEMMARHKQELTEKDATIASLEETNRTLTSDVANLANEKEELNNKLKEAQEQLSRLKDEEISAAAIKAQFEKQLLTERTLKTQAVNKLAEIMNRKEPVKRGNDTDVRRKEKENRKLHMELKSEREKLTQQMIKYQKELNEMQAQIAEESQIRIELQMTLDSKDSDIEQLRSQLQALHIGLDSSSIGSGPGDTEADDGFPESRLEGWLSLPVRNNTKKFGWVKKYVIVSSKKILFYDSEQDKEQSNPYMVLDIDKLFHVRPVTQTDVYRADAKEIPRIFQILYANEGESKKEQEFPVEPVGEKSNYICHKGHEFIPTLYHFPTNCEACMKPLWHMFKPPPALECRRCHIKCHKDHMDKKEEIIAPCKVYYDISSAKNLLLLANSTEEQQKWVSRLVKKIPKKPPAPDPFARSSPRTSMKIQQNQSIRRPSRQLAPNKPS

**Q.** With `NC(=O)c1ccc(NC2CCN(Cc3ccccc3)CC2)cc1` [Example 10, 4-[(1-benzylpiperidin-4-yl)amino]benzamide] as the compound, how does the pIC50 read?
**A.** 5.70

**Q.** With `COc1cc(N[C@H]2CC[C@H](N)CC2)c(Cl)cc1C(N)=O` [Example 113, 4-[(trans-4-aminocyclohexyl)amino]-5-chloro-2-methoxybenzamide] as the compound, how does the pIC50 read?
**A.** 7.66

**Q.** With `NC(=O)c1cc(Cl)c(N[C@H]2CC[C@H](N)CC2)cc1F` [Example 141, 4-[trans-(4-aminocyclohexyl)-amino]-5-chloro-2-fluorobenzamide] as the compound, how does the pIC50 read?
**A.** 7.54

**Q.** With `COc1cc(N[C@H]2CC[C@H](N)CC2)c(F)cc1C(N)=O` [Example 158, 4-[(trans-4-aminocyclo-hexyl)amino]-5-fluoro-2-methoxybenzamide] as the compound, how does the pIC50 read?
**A.** 7.55

**Q.** With `COc1cc(O[C@H]2CC[C@H](N)CC2)c(Cl)cc1C(N)=O` [Example 159, 4-[(trans-4-aminocyclohexyl)-oxy]-5-chloro-2-methoxybenzamide] as the compound, how does the pIC50 read?
**A.** 7.61

**Q.** With `NC(=O)c1cc(F)c(N[C@H]2CC[C@H](N)CC2)cc1F` [Example 162, 4-[trans-(4-aminocyclohexyl)-amino]-2,5-difluorobenzamide] as the compound, how does the pIC50 read?
**A.** 7.58

**Q.** With `NC(=O)c1cc(Br)c(N[C@H]2CC[C@H](N)CC2)cc1F` [Example 163, 4-[trans-(4-aminocyclohexyl)-amino]-5-bromo-2-fluorobenzamide] as the compound, how does the pIC50 read?
**A.** 7.60

System: not given
Experiment: not given
Details: not given

**Q.** With `Cl.NC(=O)c1ccc(NC2CCNCC2)cc1` as the compound, how does the melting point read?
**A.** 292 to 294 °C (dec.)

**Q.** Which melting point does the source give for `NC(=O)c1ccc(NC2CCN(Cc3ccccc3)CC2)cc1` [Example 10, 4-[(1-benzylpiperidin-4-yl)amino]benzamide] here?
**A.** 192 to 193 °C

**Q.** With `NC(=O)c1ccc(NC(=O)C2CCCN(Cc3ccccc3)C2)cc1` (centres unmarked) [Example 13, N-[4-(aminocarbonyl)phenyl]-1-benzylpiperidine-3-carboxamide] as the compound, how does the melting point read?
**A.** 211 to 212 °C

**Q.** For `NC(=O)c1ccc(OC2CCN(Cc3ccccc3)CC2)cc1` [Example 25, 4-[(1-benzylpiperidin-4-yl)oxy]benzamide], which melting point is on record?
**A.** 166 to 168 °C

**Q.** Which melting point does the source give for `COc1cc(NC2CCN(Cc3ccccc3)CC2)ccc1C(N)=O` [Example 28, 4-[(1-benzylpiperidin-4-yl)amino]-2-methoxybenzamide] here?
**A.** 155 to 157 °C

**Q.** For `COc1cc(NCc2ccccc2)ccc1C(N)=O` [Example 85, 4-(benzylamino)-2-methoxybenzamide], which melting point is on record?
**A.** 175 to 176 °C

**Q.** For `COc1cc(NCc2ccncc2)ccc1C(N)=O` [Example 128, 2-Methoxy-4-[(pyridin-4-ylmethyl)amino]-benzamide], which melting point is on record?
**A.** 180 to 183 °C
